Assay results from ChEMBL document CHEMBL1201862, “PubChem BioAssay data set” (2004).
Values belong to the molecule of their own block, whether it stands above or below them. Active and inactive are the calls of the source.

Key:
[1] = biological target: Arf-GAP with SH3 domain, ANK repeat and PH domain-containing protein 1 (Homo sapiens, UniProt Q9ULH1); type: functional;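 further: biochemical fluorescence polarization dose–response screen measuring inhibition of ASAP1; ASAP1 GAP domain stimulating GTP hydrolysis by truncated human ARF1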
[2] = biological target: ADP-ribosylation factor GTPase-activating protein 1 (Rattus norvegicus, UniProt Q62848); experiment: Fluorescence polarization-based biochemical high throughput dose response screening assay to identify inhibitors of ADP-ribosylation factor GTPase activating protein 1 (ARFGAP1).; type: functional
Sequence of ADP-ribosylation factor GTPase-activating protein 1 (Q62848 whole entry): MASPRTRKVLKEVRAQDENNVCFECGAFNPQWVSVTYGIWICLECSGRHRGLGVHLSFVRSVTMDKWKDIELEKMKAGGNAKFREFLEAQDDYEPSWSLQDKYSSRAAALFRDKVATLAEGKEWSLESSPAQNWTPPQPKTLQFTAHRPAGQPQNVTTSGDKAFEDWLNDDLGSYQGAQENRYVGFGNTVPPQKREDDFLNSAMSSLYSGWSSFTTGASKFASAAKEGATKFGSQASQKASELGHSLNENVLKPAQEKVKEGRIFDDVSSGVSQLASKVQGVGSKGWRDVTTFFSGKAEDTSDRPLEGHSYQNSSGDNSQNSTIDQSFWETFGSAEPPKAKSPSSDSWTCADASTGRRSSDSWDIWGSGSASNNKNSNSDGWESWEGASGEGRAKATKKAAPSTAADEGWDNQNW

[3] = biological target: T1, Corticotropin-releasing factor receptor 2/Corticotropin-releasing factor-binding protein (Homo sapiens, UniProt P24387+Q13324); experiment: activators of CRF receptor 2 with binding protein – uHTS hits, confirmation (AID 602473); type: functional; conditions: read-out: EC50_Mean
T1 sequence (Q13324 whole entry): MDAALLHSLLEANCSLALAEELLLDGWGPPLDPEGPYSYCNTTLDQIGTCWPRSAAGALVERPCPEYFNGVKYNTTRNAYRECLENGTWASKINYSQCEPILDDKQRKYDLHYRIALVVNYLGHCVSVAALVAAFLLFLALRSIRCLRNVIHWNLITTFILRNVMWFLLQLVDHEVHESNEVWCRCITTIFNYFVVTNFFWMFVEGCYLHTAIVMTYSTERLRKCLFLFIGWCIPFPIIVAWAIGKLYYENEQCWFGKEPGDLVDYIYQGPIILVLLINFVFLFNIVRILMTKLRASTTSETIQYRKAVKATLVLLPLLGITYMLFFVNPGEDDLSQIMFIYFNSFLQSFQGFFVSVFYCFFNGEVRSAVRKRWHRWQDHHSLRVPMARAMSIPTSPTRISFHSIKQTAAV
T1 sequence (P24387 whole entry): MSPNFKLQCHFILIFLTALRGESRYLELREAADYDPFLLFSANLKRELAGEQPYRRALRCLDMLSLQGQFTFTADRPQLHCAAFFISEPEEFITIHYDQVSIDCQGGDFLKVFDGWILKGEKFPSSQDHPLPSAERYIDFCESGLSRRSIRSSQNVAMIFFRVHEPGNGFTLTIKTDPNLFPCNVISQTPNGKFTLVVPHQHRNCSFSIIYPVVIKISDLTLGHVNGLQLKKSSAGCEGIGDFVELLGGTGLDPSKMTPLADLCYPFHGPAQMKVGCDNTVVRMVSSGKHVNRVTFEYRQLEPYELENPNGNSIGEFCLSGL

[4] = blockers of CRF-binding protein–CRF-R2 complex – cell-based, uHTS hits, 384-well, dose response (AID 651639); type: functional, Homo sapiens; conditions: read-out: IC50_Mean
[5] = biological target: T1, Corticotropin-releasing factor receptor 2/Corticotropin-releasing factor-binding protein; experiment: Dose Response confirmation of uHTS hits for small molecule antagonists of the CRF-binding protein and CRF-R2 receptor complex.; type: functional; conditions: read-out: IC50_Mean
[6] = biological target: T2, DNA repair and recombination protein RAD54-like (Homo sapiens, UniProt Q92698); experiment: RAD54 Holliday junction migration blockers – biochemical, fluorescence, cherry-picked samples, dose series, confirmation (AID 651657); type: functional
T2 sequence (Q92698 whole entry): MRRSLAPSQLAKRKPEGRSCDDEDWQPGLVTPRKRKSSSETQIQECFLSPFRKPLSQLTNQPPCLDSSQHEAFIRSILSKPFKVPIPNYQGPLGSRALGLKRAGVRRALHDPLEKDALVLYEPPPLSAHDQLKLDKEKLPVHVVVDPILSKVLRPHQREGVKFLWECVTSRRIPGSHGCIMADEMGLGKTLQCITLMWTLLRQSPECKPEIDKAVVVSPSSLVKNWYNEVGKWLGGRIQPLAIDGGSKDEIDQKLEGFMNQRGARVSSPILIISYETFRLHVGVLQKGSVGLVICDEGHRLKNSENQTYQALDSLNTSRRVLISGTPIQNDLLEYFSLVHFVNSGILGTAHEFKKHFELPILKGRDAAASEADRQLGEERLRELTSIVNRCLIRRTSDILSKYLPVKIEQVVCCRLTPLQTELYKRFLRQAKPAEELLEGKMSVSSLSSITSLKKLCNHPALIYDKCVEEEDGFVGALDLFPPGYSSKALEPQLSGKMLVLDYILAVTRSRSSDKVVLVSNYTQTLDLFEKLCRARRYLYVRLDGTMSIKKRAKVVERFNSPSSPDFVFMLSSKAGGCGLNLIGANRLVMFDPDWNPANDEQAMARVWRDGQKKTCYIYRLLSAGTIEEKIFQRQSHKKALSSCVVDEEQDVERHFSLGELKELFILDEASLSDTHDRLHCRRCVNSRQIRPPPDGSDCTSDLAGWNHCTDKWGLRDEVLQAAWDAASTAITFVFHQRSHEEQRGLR

[7] = system: HEK293; experiment: cells; type: functional, cell-based; conditions: Homo sapiens
[8] = biological target: Nuclear receptor subfamily 0 group B member 1 (Homo sapiens, UniProt P51843); experiment: Luminescence-based cell-based high throughput dose response assay for inhibitors of the orphan nuclear receptor subfamily 0, group B, member 1 (DAX1; NR0B1). [Related pubchem assays (depositor defined):AID504766, AID504790]; type: functional
Sequence of Nuclear receptor subfamily 0 group B member 1 (P51843 whole entry): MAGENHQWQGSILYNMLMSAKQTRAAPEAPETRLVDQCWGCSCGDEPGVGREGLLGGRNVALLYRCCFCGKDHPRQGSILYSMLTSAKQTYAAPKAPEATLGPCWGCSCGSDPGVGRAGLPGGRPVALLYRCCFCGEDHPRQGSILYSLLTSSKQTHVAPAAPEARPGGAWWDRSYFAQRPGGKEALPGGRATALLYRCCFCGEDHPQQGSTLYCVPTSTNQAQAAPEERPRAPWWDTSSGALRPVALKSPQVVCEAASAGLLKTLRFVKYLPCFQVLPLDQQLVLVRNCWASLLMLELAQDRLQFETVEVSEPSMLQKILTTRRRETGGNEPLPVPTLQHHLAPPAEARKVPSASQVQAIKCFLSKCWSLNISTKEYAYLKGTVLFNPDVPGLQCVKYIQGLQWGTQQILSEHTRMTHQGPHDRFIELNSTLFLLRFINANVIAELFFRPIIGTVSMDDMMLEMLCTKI

[9] = cytotoxicity toward MDA-MB-231 breast cancer cells – cell-based, CellTiter-Glo luminescence, cherry-pick, cytotoxicity control for RAD54 inhibitor project, dose response (AID 651692); type: functional
[10] = viability loss in HepG2 hepatoma cells – cell-based, ATP luminescence, cherry-pick, activator set 2, cytotoxicity control, dose response (AID 1053143); type: functional
[11] = biological target: T3, Heat shock factor protein 1 (Mus musculus, UniProt P38532); experiment: enhancement of HSF1-driven luciferase signal – cell-based, NIH3T3, luminescence, dose retest, confirmation (AID 435004); type: functional;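 further: stress induced by proteasome inhibitor MG132 added 30 min after compound; luciferase reporter driven by HSF1 response element in NIH3T3 cells; actives raise luminescence as potentiators of the MG132 stress response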
T3 sequence (P38532 whole entry): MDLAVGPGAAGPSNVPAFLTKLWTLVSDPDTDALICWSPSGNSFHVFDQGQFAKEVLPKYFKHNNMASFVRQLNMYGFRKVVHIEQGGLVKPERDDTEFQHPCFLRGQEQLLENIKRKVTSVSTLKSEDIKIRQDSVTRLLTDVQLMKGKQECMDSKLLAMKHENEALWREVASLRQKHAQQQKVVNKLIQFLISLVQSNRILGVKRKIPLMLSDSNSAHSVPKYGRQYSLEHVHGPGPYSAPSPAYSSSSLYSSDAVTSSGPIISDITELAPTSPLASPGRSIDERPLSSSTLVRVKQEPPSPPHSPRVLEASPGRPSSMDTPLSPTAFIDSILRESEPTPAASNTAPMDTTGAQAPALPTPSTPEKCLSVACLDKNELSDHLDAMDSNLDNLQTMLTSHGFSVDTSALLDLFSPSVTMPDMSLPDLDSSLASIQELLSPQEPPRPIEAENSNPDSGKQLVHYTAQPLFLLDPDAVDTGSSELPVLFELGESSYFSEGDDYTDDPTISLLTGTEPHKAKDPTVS

[12] = biological target: T4, Probable nicotinate-nucleotide adenylyltransferase (Staphylococcus aureus (strain N315), UniProt P65502); type: functional, Staphylococcus aureus subsp. aureus N315;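 on IC50 Mean: confirmatory dose-response retesting of NadD inhibitor hits first found in an ultra-high-throughput screen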
[13] = biological target: T4, Probable nicotinate-nucleotide adenylyltransferase; type: functional, Staphylococcus aureus subsp. aureus N315; conditions: read-out: IC50_Mean
[14] = biological target: Steroidogenic factor 1 (Homo sapiens, UniProt Q13285); experiment: Counterscreen for inverse agonists of the liver receptor homolog-1 (LRH-1; NR5A2): Luminescence-based cell-based high throughput dose response assay to identify inverse agonists of the Steroidogenic Factor 1 Nuclear Receptor (SF1; NR5A1).; type: functional
Sequence of Steroidogenic factor 1 (Q13285 whole entry): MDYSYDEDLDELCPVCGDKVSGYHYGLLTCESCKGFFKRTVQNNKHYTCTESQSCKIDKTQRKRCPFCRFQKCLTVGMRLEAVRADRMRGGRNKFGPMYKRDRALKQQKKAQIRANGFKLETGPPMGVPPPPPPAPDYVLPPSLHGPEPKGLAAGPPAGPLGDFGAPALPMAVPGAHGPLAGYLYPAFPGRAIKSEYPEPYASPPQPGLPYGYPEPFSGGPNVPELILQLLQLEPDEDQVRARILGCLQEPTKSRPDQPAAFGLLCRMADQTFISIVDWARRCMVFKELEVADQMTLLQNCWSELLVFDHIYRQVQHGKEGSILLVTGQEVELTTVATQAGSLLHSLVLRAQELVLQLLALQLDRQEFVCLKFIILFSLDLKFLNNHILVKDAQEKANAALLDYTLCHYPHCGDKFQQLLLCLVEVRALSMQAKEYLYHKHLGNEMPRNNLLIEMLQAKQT

[15] = nonselective StAR promoter luciferase inhibitors – cell-based, luminescence, luciferase reporter, counter-screen for LRH-1 inverse agonist project, dose response (AID 651969); type: functional
[16] = biological target: Nuclear receptor subfamily 5 group A member 2 (Homo sapiens, UniProt O00482); type: functional, cell-based;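 further: HEK293T cells transfected with LRH-1 and a StAR promoter luciferase reporter; potency for inhibitors that lower LRH-1 driven reporter light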
Sequence of Nuclear receptor subfamily 5 group A member 2 (O00482 whole entry): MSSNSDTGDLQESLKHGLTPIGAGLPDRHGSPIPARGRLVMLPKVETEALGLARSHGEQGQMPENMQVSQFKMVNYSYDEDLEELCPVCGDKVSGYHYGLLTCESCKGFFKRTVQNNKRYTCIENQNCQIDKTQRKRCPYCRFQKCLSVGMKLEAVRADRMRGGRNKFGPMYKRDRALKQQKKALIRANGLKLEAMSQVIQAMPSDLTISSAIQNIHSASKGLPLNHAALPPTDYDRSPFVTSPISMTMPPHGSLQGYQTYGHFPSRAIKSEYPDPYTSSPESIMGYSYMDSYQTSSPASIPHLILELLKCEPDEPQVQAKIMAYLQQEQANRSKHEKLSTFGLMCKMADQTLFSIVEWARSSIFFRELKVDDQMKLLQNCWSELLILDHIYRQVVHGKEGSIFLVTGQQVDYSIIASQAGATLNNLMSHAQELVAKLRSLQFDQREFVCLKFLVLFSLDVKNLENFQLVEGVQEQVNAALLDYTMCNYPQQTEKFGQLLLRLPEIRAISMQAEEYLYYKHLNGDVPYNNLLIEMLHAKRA

[17] = biological target: T5, ATP-dependent translocase ABCB1 (Homo sapiens, UniProt P08183); experiment: P-gp JC-1 efflux blockade concentration-response – Jurkat-DNR cells, flow cytometry, set 2, dose response (AID 504569); type: functional; conditions: read-out: EC50_MICROM_;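 further: potency of pump inhibitors that raise cellular JC-1 green fluorescence up to the nicardipine level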
T5 sequence (P08183 whole entry): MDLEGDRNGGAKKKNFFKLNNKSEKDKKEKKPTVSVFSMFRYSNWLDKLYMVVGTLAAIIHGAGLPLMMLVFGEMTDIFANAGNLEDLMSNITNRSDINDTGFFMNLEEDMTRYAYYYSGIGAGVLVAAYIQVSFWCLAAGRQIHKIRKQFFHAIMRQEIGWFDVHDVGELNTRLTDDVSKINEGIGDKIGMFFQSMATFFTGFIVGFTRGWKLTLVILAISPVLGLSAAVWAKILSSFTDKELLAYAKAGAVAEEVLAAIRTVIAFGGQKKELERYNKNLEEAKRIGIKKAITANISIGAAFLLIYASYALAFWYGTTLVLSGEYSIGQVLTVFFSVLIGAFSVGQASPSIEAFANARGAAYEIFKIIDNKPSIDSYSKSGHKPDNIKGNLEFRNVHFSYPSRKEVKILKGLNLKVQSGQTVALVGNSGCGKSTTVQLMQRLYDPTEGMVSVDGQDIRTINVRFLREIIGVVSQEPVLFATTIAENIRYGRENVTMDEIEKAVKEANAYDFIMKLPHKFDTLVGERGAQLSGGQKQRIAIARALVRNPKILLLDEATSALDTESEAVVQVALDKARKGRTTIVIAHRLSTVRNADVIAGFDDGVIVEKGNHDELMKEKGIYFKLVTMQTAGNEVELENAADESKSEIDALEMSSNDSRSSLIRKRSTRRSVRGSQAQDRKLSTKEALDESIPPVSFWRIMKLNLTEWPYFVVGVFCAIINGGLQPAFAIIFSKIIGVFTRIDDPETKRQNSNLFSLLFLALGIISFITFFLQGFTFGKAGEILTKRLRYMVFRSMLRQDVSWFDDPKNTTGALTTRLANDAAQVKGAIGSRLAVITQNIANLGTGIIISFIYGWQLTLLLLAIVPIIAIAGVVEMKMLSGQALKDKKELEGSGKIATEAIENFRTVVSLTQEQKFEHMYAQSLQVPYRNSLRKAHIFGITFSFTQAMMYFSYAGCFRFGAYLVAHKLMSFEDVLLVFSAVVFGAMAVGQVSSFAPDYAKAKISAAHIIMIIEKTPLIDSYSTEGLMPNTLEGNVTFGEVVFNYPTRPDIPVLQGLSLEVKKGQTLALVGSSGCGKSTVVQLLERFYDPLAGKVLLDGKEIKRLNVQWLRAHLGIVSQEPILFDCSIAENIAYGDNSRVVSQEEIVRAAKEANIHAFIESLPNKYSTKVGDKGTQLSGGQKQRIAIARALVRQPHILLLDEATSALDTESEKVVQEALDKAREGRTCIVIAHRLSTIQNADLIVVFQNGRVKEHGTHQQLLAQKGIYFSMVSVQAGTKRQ

[18] = biological target: T5, ATP-dependent translocase ABCB1; experiment: inhibition of BCRP-mediated JC-1 efflux – Ig-MXP3 cells, flow cytometry, set 2, dose response (AID 504566); type: functional; conditions: read-out: EC50_MICROM_;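 further: flow cytometry median green fluorescence of retained JC-1 dye; potency of efflux pump inhibition measured as rising substrate retention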
[19] = biological target: T6, Carboxy-terminal domain RNA polymerase II polypeptide A small phosphatase 1 (Homo sapiens, UniProt Q9GZU7); experiment: CTDSP1 inhibitors, concentration-response, biochemical, absorbance readout, ultra-high-throughput screen actives (AID 540297); type: functional
T6 sequence (Q9GZU7 whole entry): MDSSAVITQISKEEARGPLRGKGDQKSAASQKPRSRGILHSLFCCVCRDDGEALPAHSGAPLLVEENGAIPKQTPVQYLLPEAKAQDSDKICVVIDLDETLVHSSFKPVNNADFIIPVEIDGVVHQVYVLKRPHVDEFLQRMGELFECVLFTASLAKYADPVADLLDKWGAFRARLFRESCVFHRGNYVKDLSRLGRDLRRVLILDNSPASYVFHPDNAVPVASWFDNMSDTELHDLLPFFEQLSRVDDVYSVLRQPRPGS

[20] = biological target: Tyrosine-protein phosphatase non-receptor type 5 (Homo sapiens, UniProt P54829); experiment: PTPN5 enzyme inhibition – biochemical, fluorescence intensity, uHTS hits, confirmation (AID 602372); type: functional; conditions: read-out: IC50_Mean
Sequence of Tyrosine-protein phosphatase non-receptor type 5 (P54829 whole entry): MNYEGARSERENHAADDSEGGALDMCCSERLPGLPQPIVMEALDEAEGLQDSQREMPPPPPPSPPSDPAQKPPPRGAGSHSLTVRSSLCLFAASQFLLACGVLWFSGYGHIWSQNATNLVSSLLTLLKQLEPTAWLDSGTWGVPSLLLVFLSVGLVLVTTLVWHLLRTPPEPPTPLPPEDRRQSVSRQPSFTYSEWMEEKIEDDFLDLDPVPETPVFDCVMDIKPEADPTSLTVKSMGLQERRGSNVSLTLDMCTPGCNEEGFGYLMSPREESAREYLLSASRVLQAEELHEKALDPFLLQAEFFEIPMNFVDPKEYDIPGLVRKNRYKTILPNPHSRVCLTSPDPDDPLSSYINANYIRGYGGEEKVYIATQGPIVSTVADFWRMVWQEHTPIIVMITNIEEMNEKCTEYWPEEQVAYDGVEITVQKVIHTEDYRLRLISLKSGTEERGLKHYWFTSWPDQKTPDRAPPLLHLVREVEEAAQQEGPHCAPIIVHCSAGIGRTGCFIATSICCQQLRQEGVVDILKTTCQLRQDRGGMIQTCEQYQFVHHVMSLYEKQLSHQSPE

[21] = biological target: T7, Small ubiquitin-related modifier 1 (Homo sapiens, UniProt P63165); experiment: SUMO1 protein interaction blockers, potency – biochemical, fluorescence polarization, uHTS hits, dose response (AID 624382); type: functional; conditions: read-out: IC50_Mean
T7 sequence (P63165 whole entry): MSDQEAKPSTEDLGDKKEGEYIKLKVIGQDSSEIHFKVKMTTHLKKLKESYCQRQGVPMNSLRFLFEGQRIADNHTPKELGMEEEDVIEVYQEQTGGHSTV

[22] = biological target: T7, Small ubiquitin-related modifier 1; experiment: SUMO1 protein-protein binding blockers, potency – biochemical, FRET, dose response (AID 624383); type: functional; conditions: read-out: IC50_Mean
[23] = biological target: Tyrosine-protein phosphatase non-receptor type 11 (Homo sapiens, UniProt Q06124); experiment: PTPN11 enzyme inhibitors – biochemical, selectivity assay for STEP inhibitor project, dose response (AID 602367); type: functional; conditions: read-out: IC50_Mean
[24] = biological target: Dual specificity protein phosphatase 3 (Homo sapiens, UniProt P51452); experiment: VHR phosphatase inhibition, dose response, selectivity assay for STEP inhibitor project, biochemical (AID 602374); type: functional; conditions: read-out: IC50_Mean
Sequence of Dual specificity protein phosphatase 3 (P51452 whole entry): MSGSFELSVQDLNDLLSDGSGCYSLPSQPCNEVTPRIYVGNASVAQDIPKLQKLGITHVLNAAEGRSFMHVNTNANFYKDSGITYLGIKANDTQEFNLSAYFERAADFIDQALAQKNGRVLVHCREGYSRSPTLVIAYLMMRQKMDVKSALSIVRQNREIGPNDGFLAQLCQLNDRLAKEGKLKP

[25] = biological target: T8, Tyrosine-protein phosphatase non-receptor type 22 (Homo sapiens, UniProt Q9Y2R2); experiment: lymphoid phosphatase LYP inhibitors – biochemical, selectivity assay for STEP inhibitor project, dose response (AID 624241); type: functional
T8 sequence (Q9Y2R2 whole entry): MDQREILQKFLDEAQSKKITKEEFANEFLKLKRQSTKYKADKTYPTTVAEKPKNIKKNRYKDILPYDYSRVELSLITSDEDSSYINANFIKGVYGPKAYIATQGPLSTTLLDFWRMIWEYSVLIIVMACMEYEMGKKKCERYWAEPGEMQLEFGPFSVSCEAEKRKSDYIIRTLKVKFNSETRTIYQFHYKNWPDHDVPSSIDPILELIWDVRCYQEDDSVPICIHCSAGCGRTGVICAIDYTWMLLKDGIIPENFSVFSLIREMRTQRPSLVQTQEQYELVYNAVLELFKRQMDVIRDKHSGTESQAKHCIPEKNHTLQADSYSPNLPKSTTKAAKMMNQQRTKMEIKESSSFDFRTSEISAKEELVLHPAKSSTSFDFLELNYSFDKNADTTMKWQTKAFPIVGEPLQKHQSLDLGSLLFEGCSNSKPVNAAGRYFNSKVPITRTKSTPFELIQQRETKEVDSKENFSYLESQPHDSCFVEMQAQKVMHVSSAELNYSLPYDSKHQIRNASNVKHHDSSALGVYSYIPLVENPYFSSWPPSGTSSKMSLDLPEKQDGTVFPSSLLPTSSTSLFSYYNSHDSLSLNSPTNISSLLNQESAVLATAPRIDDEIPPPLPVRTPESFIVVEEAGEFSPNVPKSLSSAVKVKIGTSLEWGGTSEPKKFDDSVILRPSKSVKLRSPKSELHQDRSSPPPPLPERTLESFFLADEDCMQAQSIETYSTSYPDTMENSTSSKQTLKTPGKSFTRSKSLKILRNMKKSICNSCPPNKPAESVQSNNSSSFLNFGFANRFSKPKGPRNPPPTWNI

[26] = biological target: T9, Methionyl-tRNA synthetase, putative (Trypanosoma brucei brucei, UniProt Q38C91); type: functional, Trypanosoma brucei brucei strain 927/4 GUTat10.1
T9 sequence (Q38C91 whole entry): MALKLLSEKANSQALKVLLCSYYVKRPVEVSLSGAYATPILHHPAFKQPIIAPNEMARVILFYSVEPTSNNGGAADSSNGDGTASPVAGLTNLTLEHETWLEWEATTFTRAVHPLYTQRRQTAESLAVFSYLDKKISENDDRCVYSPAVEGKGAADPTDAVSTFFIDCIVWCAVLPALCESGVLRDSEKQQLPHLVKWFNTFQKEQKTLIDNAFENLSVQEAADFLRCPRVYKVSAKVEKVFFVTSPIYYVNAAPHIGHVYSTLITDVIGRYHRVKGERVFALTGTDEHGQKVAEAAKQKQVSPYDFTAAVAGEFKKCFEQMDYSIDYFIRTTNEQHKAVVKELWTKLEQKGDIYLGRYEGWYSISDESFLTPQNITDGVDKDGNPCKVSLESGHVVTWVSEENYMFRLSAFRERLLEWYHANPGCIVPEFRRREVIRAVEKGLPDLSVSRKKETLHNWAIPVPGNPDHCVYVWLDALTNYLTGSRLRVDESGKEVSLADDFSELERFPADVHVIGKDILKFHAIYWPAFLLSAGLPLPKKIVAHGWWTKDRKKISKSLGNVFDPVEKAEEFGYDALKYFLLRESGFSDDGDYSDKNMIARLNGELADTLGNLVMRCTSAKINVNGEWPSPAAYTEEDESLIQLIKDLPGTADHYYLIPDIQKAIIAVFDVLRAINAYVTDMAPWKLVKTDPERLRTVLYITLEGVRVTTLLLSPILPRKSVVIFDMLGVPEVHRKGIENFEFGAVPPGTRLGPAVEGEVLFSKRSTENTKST

[27] = biological target: T9, Methionyl-tRNA synthetase, putative; type: functional, Trypanosoma brucei brucei strain 927/4 GUTat10.1; remark: listed apart in the source
[28] = Counterscreen for inhibitors of Trypanosoma brucei methionyl tRNA synthetase (MetRS): Luminescence-based cell-based high throughput dose response assay to identify compounds that are cytotoxic to Jurkat human T lymphocyte cells.; type: functional

Compound: CCN1C(=O)CCN(C2CCCC2)c2nc(Nc3ccc(C(=O)NC4CCN(C)CC4)cc3OC)ncc21
AC50 [6]: 39.3 µM (active) | IC50 [7]: > 67.5 µM (inactive) | IC50 [8]: > 67.5 µM (inactive) | AC50 [9]: 36.4 µM (active) | AC50 [10]: 13 µM (active)

Compound: Cc1ccc(NC(=O)COC(=O)c2cc(=O)c3ccccc3o2)c(Br)c1
IC50 [14]: 24.3 µM (inactive) | IC50 [15]: 35.9 µM (inactive) | IC50 [16]: 3.98 µM (active)

Compound: CN(C)c1ccc(C(=O)OCC(=O)Nc2ccc(S(N)(=O)=O)cc2)cc1
IC50 [19]: 8.63 µM (active) | EC50 [3]: > 53 µM (inactive) | IC50 [20]: 7.3 µM (active) | IC50 [5]: > 47.1 µM (inactive) | IC50 [21]: > 66.6 µM (inactive) | IC50 [22]: 12.8 µM (active) | IC50 [23]: 4.13 µM (active) | IC50 [24]: 6.56 µM (active) | IC50 [25]: 67.7 µM (inactive)

Compound: Cc1ccc2[nH]c3c(NCCCN4CCCC4=O)ncnc3c2c1
IC50 [26]: 23.3 µM (inactive) | IC50 [27]: 27.9 µM (inactive) | IC50 [28]: 17.9 µM (inactive)

More lines, now with the values ahead:

IC50 [1]: 13.3 µM (inactive) | IC50 [2]: 2.03 µM (active)
Compound: CC1=CC2=NC(=O)/C(=C\c3ccc(-c4cccc(Cl)c4)o3)C(=N)N2O1

EC50 [3]: > 53 µM (inactive) | IC50 [4]: > 20 µM (inactive) | IC50 [5]: 18.9 µM (active)
Compound: O=C(Cc1ccccc1)NCC(=O)OC(c1ccccc1)c1ccccc1

EC50 [11]: > 260 µM (inactive) | IC50 [12]: 44.3 µM (active) | IC50 [13]: 80 µM (inactive)
Compound: O=C(CNc1cccc2ccccc12)N/N=C/c1ccc([N+](=O)[O-])cc1

EC50 [17]: 3.98 µM (active) | EC50 [18]: 1.8 µM (active)
Compound: O=C(c1ccccc1)N1CCN(c2cc(Cl)nc3cc(-c4cccc(Cl)c4)nn23)CC1
